Tests used:
[1] = system: red blood cells (RBCs); assay: Localisation of biotin to RBC surface by conjugation with avidin ALEXAFLUOR (fluorescence microscopy); format: cell-based; set-up: key to fluorescent signal intensity grade: 1 (low); 2 (moderate); 3 (bright); 4 (very bright); conditions: for staining at higher concentrations: 100 and 500 μM; for fluorescent signal intensity grade: constructs at concentrations of 10 and 25 μM, avidin ALEXAFLUOR
Experimental: (§1) The use of aqueous solutions of the construct designated Biotin-S3-S4-S2-chol (III) and the construct designated Biotin-S3-S4-S5-DOPE (IV) in the localisation of biotin (F) to cell surfaces was also compared. Solutions of the two constructs were prepared at substantially equimolar concentrations. The use of the solutions was assessed across a concentration range from 0 to 500 μM (0.5 mM). A 0.5 mM solution of the construct designated Biotin-S3-S4-S2-chol (III) was prepared by dissolving 0.4 mg of the construct in 514 μL of PBS. […] A 0.5 mM stock solution of the construct designated Biotin-S3-S4-S5-DOPE (IV) was prepared by dissolving 2 mg of the construct in 1942 μL of phosphate buffered saline (PBS). Each 0.5 mM solution was warmed to 37° C. for 10 minutes, vortexed and sonicated for 30 seconds to ensure complete dissolution of the construct in the aqueous medium. A dilution series was prepared for each construct to provide a total volume of 100 μL at each of the following concentrations: […]. Equal volumes (40 μL) of packed, washed red blood cells (RBCs) and solutions of constructs at different concentrations were mixed in a glass kimble tube. The tubes were incubated at 37° C. for 20 minutes in a water bath with periodic (3 x) agitation. The incubated cells were washed 3× with PBS before being resuspended in a cell preservative (CELPRESOL™) for storage at 4° C. overnight.
(§2) Two equal volumes were taken from each tube and centrifuged (300×g for 2 minutes) to provide two equivalent packed cells volumes for further evaluation. One of each pair of equivalent packed cell volumes was evaluated for localisation of the biofunctional moiety biotin to the surface of the RBCs by conjugation with avidin ALEXAFLUOR™. One of each pair of the equivalent packed cell volumes was evaluated for localisation of the biofunctional moiety biotin to the surface of the RBCs by conjugation to avidinylated beads (DYNABEADS™ M-280).
Conjugation with avidin ALEXAFLUOR™ was evaluated as described in the publication of Oliver et al (2011). An aliquot containing 0.02 mg avidin ALEXAFLUOR™ was mixed with a volume ([…]) of PBS containing BSA to provide a 0.1 mg/mL solution. Equal volumes 20 μL of packed RBCs and the solution of avidin ALEXAFLUOR™ were mixed and incubated at 37° C. for 30 minutes. The cells were then washed 3× with PBS before placing a drop (10 μL) on a glass microscope slide for fluorescent microscopy (WIB filter at 400× magnification). Cells were graded for fluorescence intensity over two micrograph fields of view. Grades determined via the eye piece were correlated with the corresponding photomicrographs (1.9 sec exposure). Grades were assigned according to the following scale: 1 (low), 2 (moderate), 3 (bright) and 4 (very bright). The morphology of the cells was also recorded (“normal” or “poiked”).

[2] = system: red blood cells (RBCs); assay: Localisation of biotin to RBC surface by attachment of avidinylated beads (DYNABEADS M-280); format: cell-based
Experimental: as §1, with “The tubes were incubated at 37° C. for 20 minutes in a water bath with periodic (3 x) agitation. The incubated cells were washed 3× with PBS before being resuspended in a cell preservative (CELPRESOL™) for storage at 4° C. overnight.” left out
as §2
Conjugation with avidinylated beads (DYNABEADS™ M-280) was performed. […] The attachment of beads to cells was scored at 400× and 800× magnification on a compound microscope. An estimate of the number of beads and the presence of cell clusters was recorded for each group and compared with a negative control.

[3] = Dissolution of construct in PBS; format: physicochemical; conditions: 0.5 mM: 0.4 mg in 514 μL of PBS
Experimental: as §1, with “The incubated cells were washed 3× with PBS before being resuspended in a cell preservative (CELPRESOL™) for storage at 4° C. overnight.” left out

[4] = system: O group red blood cells (RBCs); assay: Serology of kodecytes with monoclonal preparations; format: cell-based; set-up: scale not given here; conditions: kodecytes prepared at 200 μg/mL construct
Experimental: The use of aqueous solutions of the construct designated Atri-S1-chol (I), the construct designated Atri-S1-S5-DOPE (V) and the construct designated Atri-S1-S5-S4-S5-DOPE (VI) in the localisation of Atri (F) to cell surfaces was also compared. (The constructs designated Atri-S1-S5-DOPE (V) and […] (VI) (FIG. 11) were prepared according to Bovin et al (2005) and Bovin et al (2009)). Volumes (40 μL) of packed, washed O group red blood cells (RBCs) were resuspended in equal volumes of solutions of each of the three constructs at a concentration of 200 μg/mL in PBS. The resuspended RBCs were incubated at room temperature for 4 hours prior to storage at 4° C. overnight. Serology was performed as described by Bovin et al (2005) using a range of monoclonal preparations and sera.

With `CCCCCCCC/C=C\CCCCCCCC(=O)OCC(COP(=O)([O-])OCCNC(=O)CCCCC(=O)NCC(=O)NCC(=O)N(CC(=O)[O-])CC(=O)NCC(=O)NCC(=O)N(CC(=O)[O-])CC(=O)NCCNC(=O)CN(CC(=O)[O-])C(=O)CNC(=O)CNC(=O)CN(CC(=O)[O-])C(=O)CNC(=O)CNC(=O)CCCC[C@@H]1SC[C@@H]2NC(=O)N[C@@H]21)OC(=O)CCCCCCC/C=C\CCCCCCCC.[Na+].[Na+].[Na+].[Na+].[Na+]` (stereo partly drawn) [Biotin-S3-S4-S5-DOPE (IV), reference compound] the “staining at higher concentrations” value [1] was “poor staining”, the “fluorescent signal intensity grade” value [1] was 2 and the “attachment of avidinylated beads, comparison of the two constructs” value [2] was “comparable results”.
In the case of `CC(C)CCC[C@@H](C)[C@H]1CC[C@H]2[C@@H]3CC=C4C[C@@H](OC(=O)NCCCCC(=O)NCC(=O)NCC(=O)N(CC(=O)[O-])CC(=O)NCC(=O)NCC(=O)N(CC(=O)[O-])CC(=O)NCCNC(=O)CN(CC(=O)[O-])C(=O)CNC(=O)CNC(=O)CN(CC(=O)[O-])C(=O)CNC(=O)CNC(=O)CCCC[C@@H]5SC[C@@H]6NC(=O)N[C@@H]65)CC[C@]4(C)[C@H]3CC[C@]12C.[Na+].[Na+].[Na+].[Na+]` [Biotin-S3-S4-S2-chol (III)], the “staining at higher concentrations” value [1] is reported as “poor staining”, the “homogeneity of modification of cell surface” value ([1]; compared with Biotin-S3-S4-S5-DOPE (IV)) is reported as “more homogenous modification over the entire cell surface and lesser inter-cell variation” and the “fluorescent signal intensity grade” value [1] is reported as 2. For the same molecule, the “fluorescent signal intensity relative to cells prepared using Biotin-S3-S4-S5-DOPE (IV)” value ([1]; lower concentration ranges (5 to 75 μM)) was “moderately lower”, the “attachment of avidinylated beads, comparison of the two constructs” value [2] was “comparable results” and the “number of beads attached to each RBC and clustering of RBCs into groups, relative to the other construct” value ([2]; 25 μM construct) was “slightly greater”. The “dissolution in PBS” value [3] was “readily dissolved to provide a clear solution”.
In the case of `CC(=O)NC1C(OC2C(O)C(CO)OC(OCCCNC(=O)OC3CCC4(C)C(=CCC5C4CCC4(C)C(C(C)CCCC(C)C)CCC54)C3)C2OC2OC(C)C(O)C(O)C2O)OC(CO)C(O)C1O` (stereo not drawn) [I], the Serology score ([4]; Anti-A (ABO1) Diagast) is reported as 0, the Serology score ([4]; Anti-A ALBAclone) is reported as 0 and the Serology score ([4]; Anti-A BRG) is reported as 0. For the same molecule, the Serology score ([4]; Anti-A Biotest) was 0, the Serology score ([4]; Anti-A CSL Epiclone) was 0 and the Serology score ([4]; Anti-A CSL) was 0. For the same molecule, the Serology score ([4]; Anti-A Diagast) was 0, the Serology score ([4]; Anti-A Diagnostics Scotland) was 0 and the Serology score ([4]; Anti-A Lorne) was 0. The Serology score ([4]; Anti-A Ortho-BioClone) was 0, the Serology score ([4]; Anti-A Span) was 0 and the Serology score ([4]; Anti-A ortho) was 0. It also gave a Serology score ([4]; Anti-A, B CSL) of 0, a Serology score ([4]; Anti-A, B Diagast) of 0 and a Serology score ([4]; Anti-A, B Diagnostics Scotland) of 0. For the same molecule, the Serology score ([4]; Anti-A/B ALBAclone) was 0, the Serology score ([4]; Anti-A/B CSL Epiclone) was 0 and the Serology score ([4]; Anti-A/B Dominion (Novaclone)) was 0. For the same molecule, the Serology score ([4]; Anti-B (ABO2) Diagast) was 0, the Serology score ([4]; Anti-B ALBAclone) was 0 and the Serology score ([4]; Anti-B Biotec) was 0. The Serology score ([4]; Anti-B CSL Epiclone) was 0, the Serology score ([4]; Anti-B CSL) was 0 and the Serology score ([4]; Anti-B Diagast) was 0. The Serology score ([4]; Anti-B Diagnostics Scotland) was 0, the Serology score ([4]; Anti-B Dominion (Novaclone)) was 0 and the Serology score ([4]; Anti-B Gama) was 0. The Serology score ([4]; Anti-B Immucor) was 0, the Serology score ([4]; Anti-B Millipore) was 0 and the Serology score ([4]; Anti-B Ortho-BioClone) was 0. The Serology score ([4]; Anti-B Ortho-MoltenClone) was 0, the Serology score ([4]; Anti-B Span) was 0 and the Serology score ([4]; Anti-B ortho) was 0. It also gave a Serology score ([4]; Diagast Anti-A/B (ABO3)) of 0.
With `CCCCCCCCC=CCCCCCCCC(=O)OCC(COP(=O)([O-])OCCNC(=O)CCCCC(=O)NCCCOC1OC(CO)C(O)C(OC2OC(CO)C(O)C(O)C2NC(C)=O)C1OC1OC(C)C(O)C(O)C1O)OC(=O)CCCCCCCC=CCCCCCCCC.[Na+]` (stereo not drawn) [V, reference compound] the Serology score ([4]; Anti-A, B Diagast) was 0, the Serology score ([4]; Anti-B (ABO2) Diagast) was 0 and the Serology score ([4]; Anti-B ALBAclone) was 0. It also gave a Serology score ([4]; Anti-B Biotec) of 0, a Serology score ([4]; Anti-B CSL Epiclone) of 0 and a Serology score ([4]; Anti-B CSL) of 0. It also gave a Serology score ([4]; Anti-B Diagast) of 0, a Serology score ([4]; Anti-B Diagnostics Scotland) of 0 and a Serology score ([4]; Anti-B Dominion (Novaclone)) of 0. The Serology score ([4]; Anti-B Gama) was 0, the Serology score ([4]; Anti-B Immucor) was 0 and the Serology score ([4]; Anti-B Millipore) was 0. It also gave a Serology score ([4]; Anti-B Ortho-BioClone) of 0, a Serology score ([4]; Anti-B Ortho-MoltenClone) of 0 and a Serology score ([4]; Anti-B Span) of 0. For the same molecule, the Serology score ([4]; Anti-B ortho) was 0.
`CCCCCCCC/C=C\CCCCCCCC(=O)OCC(COP(=O)([O-])OCCNC(=O)CCCCC(=O)NCC(=O)NCC(=O)N(CC(=O)[O-])CC(=O)NCC(=O)NCC(=O)N(CC(=O)[O-])CC(=O)NCCNC(=O)CN(CC(=O)[O-])C(=O)CNC(=O)CNC(=O)CN(CC(=O)[O-])C(=O)CNC(=O)CNC(=O)CCCCC(=O)NCCCO[C@@H]1O[C@H](CO)[C@H](O)[C@H](O[C@H]2O[C@H](CO)[C@H](O)[C@H](O)[C@H]2NC(C)=O)[C@H]1O[C@@H]1O[C@@H](C)[C@@H](O)[C@@H](O)[C@@H]1O)OC(=O)CCCCCCC/C=C\CCCCCCCC.[Na+].[Na+].[Na+].[Na+].[Na+]` (stereo partly drawn) [VI, reference compound] showed a Serology score ([4]; Anti-B (ABO2) Diagast) of 0, a Serology score ([4]; Anti-B ALBAclone) of 0 and a Serology score ([4]; Anti-B Biotec) of 0. For the same molecule, the Serology score ([4]; Anti-B CSL Epiclone) was 0, the Serology score ([4]; Anti-B CSL) was 0 and the Serology score ([4]; Anti-B Diagast) was 0. It also gave a Serology score ([4]; Anti-B Diagnostics Scotland) of 0, a Serology score ([4]; Anti-B Dominion (Novaclone)) of 0 and a Serology score ([4]; Anti-B Gama) of 0. For the same molecule, the Serology score ([4]; Anti-B Immucor) was 0, the Serology score ([4]; Anti-B Millipore) was 0 and the Serology score ([4]; Anti-B Ortho-BioClone) was 0. For the same molecule, the Serology score ([4]; Anti-B Ortho-MoltenClone) was 0, the Serology score ([4]; Anti-B Span) was 0 and the Serology score ([4]; Anti-B ortho) was 0.

Reference: US20140004499A1, “BIOSURFACE ENGINEERING” (priority 2011, published 2014)
